Experimental data published in patent US20240116947A1, “PYRIDO OXAZINE DERIVATIVES AS ALK5 INHIBITORS” (CHIESI FARMACEUTICI S.P.A., priority 2020, published 2024).
Like-named read-outs stand apart in the source and are kept apart here.

Target: human ALK5 (Homo sapiens (Human), UniProt P36897)
Assay: ADP-GLO Kinases assay, inhibition of ALK5 enzymatic activity
Type: biochemical
Experimental: The enzymatic activity of compounds of the present invention was monitored measuring the formation of ADP using the ADP-GLO Kinases assay. Following the incubation of the purified enzyme, a substrate and ATP, the produced ADP was converted into ATP, which in turn was converted into light by Ultra-Glo Luciferase. The luminescent signal positively correlated with ADP amount and kinase activity. Briefly, the kinase reaction was performed by incubating 2.6 nM of the purified, commercially available human ALK5 (recombinant TGF β1 N-term GST-tagged, 80-end), a final concentration of TGFβ1 peptide 94.5 μM (Promega, T36-58) and ultra-pure ATP (Promega V915B). […] All reactions/incubations were performed at 25° C. Compound and ALK5 kinase were mixed and incubated for 15 mins. Reactions were initiated by addition of ATP at a final concentration in the assay of 0.83 μM. After an incubation of 150 min, the reaction was stopped, and ADP production detected with ADP-Glo kit according to manufacturer's indications. The assay was performed in 384-well format and was validated using a selection of reference compounds that was tested in 11 point concentration-response curve.

[1] = Table 4, potency bins, purified recombinant human ALK5, ADP-Glo, 25° C., read-out: ALK5 IC50

Chain of human ALK5 (P36897 80-503 limits assumed): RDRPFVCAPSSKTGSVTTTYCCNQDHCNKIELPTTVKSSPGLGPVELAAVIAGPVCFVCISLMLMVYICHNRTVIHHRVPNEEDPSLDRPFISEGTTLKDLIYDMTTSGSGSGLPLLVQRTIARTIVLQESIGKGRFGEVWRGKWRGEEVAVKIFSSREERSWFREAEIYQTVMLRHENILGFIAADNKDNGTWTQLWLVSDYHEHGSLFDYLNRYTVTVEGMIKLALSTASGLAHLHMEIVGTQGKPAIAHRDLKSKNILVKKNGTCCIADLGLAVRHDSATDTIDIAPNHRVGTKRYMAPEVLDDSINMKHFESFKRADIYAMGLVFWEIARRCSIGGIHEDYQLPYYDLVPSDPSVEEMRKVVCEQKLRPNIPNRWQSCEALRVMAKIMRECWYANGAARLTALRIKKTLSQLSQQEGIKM

Row | Structure (SMILES) | IC50 [1] | other results
1 | COCCC(=O)Nc1cc(N2CCOc3cnc(-c4cc(Cl)ccc4F)cc32)ccn1 [Example 40, N-{4-[7-(5-chloro-2-fluorophenyl)-1H,2H,3H-pyrido[3,4-b][1,4]oxazin-1-yl]pyridin-2-yl}-3-methoxypropanamide] | 5 to 10 nM | –
2 | NC(=O)CCN1CCN(CCC(=O)Nc2cc(N3CCOc4cnc(-c5cc(Cl)ccc5F)cc43)ccn2)CC1 [Example 37, 3-[4-(2-carbamoylethyl)piperazin-1-yl]-N-{4-[7-(5-chloro-2-fluorophenyl)-1H,2H,3H-pyrido[3,4-b][1,4]oxazin-1-yl]pyridin-2-yl}propanamide] | < 1 nM | –
3 | CN1CCN(CCC(=O)Nc2cc(N3CCOc4c3cc(-c3cc(Cl)ccc3F)nc4C(F)(F)F)ccn2)CC1 [Example 56] | 5 to 10 nM | –
4 | COC(=O)CN(C)CCC(=O)Nc1cc(N2CCOc3cnc(-c4cc(Cl)ccc4F)cc32)ccn1 [Example 23, methyl 2-{[2-({4-[7-(5-chloro-2-fluorophenyl)-1H,2H,3H-pyrido[3,4-b][1,4]oxazin-1-yl]pyridin-2-yl}carbamoyl)ethyl](methyl)amino} acetate] | < 1 nM | –
5 | Fc1ccc(Cl)cc1-c1cc2c(cn1)OCCN2c1ccnc2[nH]cnc12 [Example 17, 7-(5-chloro-2-fluorophenyl)-1-{3H-imidazo[4,5-b]pyridin-7-yl}-1H,2H,3H-pyrido[3,4-b][1,4]oxazine] | 5 to 10 nM | –
6 | CN1CC2CC1CN2CC(=O)Nc1cc(N2CCOc3cnc(-c4cc(Cl)ccc4F)cc32)ccn1 (stereo not shown) [Example 52, N-{4-[7-(5-chloro-2-fluorophenyl)-1H,2H,3H-pyrido[3,4-b][1,4]oxazin-1-yl]pyridin-2-yl}-2-{5-methyl-2,5-diazabicyclo[2.2.1]heptan-2-yl}acetamide] | < 1 nM | –
7 | COC(=O)CC1CN(CCC(=O)Nc2cc(N3CCOc4cnc(-c5cc(Cl)ccc5F)cc43)ccn2)CCN1C (stereo not shown) [Example 47, Methyl 2-{4-[2-({4-[7-(5-chloro-2-fluorophenyl)-1H,2H,3H-pyrido[3,4-b][1,4]oxazin-1-yl]pyridin-2-yl}carbamoyl)ethyl]-1-methylpiperazin-2-yl}acetate] | < 1 nM | –
8 | Fc1ccc(Cl)cc1-c1cc2c(cn1)OCCN2c1ccnc2[nH]ncc12 [Example 15, 7-(5-chloro-2-fluorophenyl)-1-{1H-pyrazolo[3,4-b]pyridin-4-yl}-1H,2H,3H-pyrido[3,4-b][1,4]oxazine] | 1 to 5 nM | –
9 | O=C(CCN1CCOCC1)Nc1cc(N2CCOc3cnc(-c4cc(Cl)ccc4F)cc32)ccn1 [Example 8, N-{4-[7-(5-chloro-2-fluorophenyl)-1H,2H,3H-pyrido[3,4-b][1,4]oxazin-1-yl]pyridin-2-yl}-3-(morpholin-4-yl)propanamide] | < 1 nM | –
10 | CN1CCC(CCC(=O)Nc2cc(N3CCOc4cnc(-c5nc(Cl)ccc5F)cc43)ccn2)CC1 [Example 39, N-{4-[7-(6-chloro-3-fluoropyridin-2-yl)-1H,2H,3H-pyrido[3,4-b][1,4]oxazin-1-yl]pyridin-2-yl}-3-(1-methylpiperidin-4-yl)propanamide] | < 1 nM | –
11 | Fc1ccc(Cl)cc1-c1cc2c(cn1)OCCN2c1ccn[nH]1 [Example C1, 5-[7-(5-chloro-2-fluorophenyl)-1H,2H,3H-pyrido[3,4-b][1,4]oxazin-1-yl]-1H-pyrazole, reference compound] | – | IC50 (Table 5, comparative examples, same in vitro assay, read-out: ALK5 IC50): 9200 nM; IC50 (statements in running text, read-out: potency (IC50) with respect to inhibitory activity on ALK5): > 9000 nM
12 | CN1CCN(CC(=O)Nc2cc(N3CCOc4cnc(-c5cc(Cl)ccc5F)cc43)ccn2)CC1 [Example 43, N-{4-[7-(5-chloro-2-fluorophenyl)-1H,2H,3H-pyrido[3,4-b][1,4]oxazin-1-yl]pyridin-2-yl}-2-(4-methylpiperazin-1-yl)acetamide] | < 1 nM | –
13 | COC(=O)C1CN(CCC(=O)Nc2cc(N3CCOc4cnc(-c5cc(Cl)ccc5F)cc43)ccn2)CCN1 (stereo not shown) [Example 46, Methyl 4-[2-({4-[7-(5-chloro-2-fluorophenyl)-1H,2H,3H-pyrido[3,4-b][1,4]oxazin-1-yl]pyridin-2-yl}carbamoyl)ethyl]piperazine-2-carboxylate] | < 1 nM | –
14 | Nc1cc(N2CCOc3cnc(-c4nc(Cl)ccc4F)cc32)ccn1 [Example 7, 4-[7-(6-Chloro-3-fluoropyridin-2-yl)-1H,2H,3H-pyrido[3,4-b][1,4]oxazin-1-yl]pyridin-2-amine] | 5 to 10 nM | –
15 | O=C(CCN1CCN(CCO)CC1)Nc1cc(N2CCOc3cnc(-c4cc(Cl)ccc4F)cc32)ccn1 [Example 28, N-{4-[7-(5-chloro-2-fluorophenyl)-1H,2H,3H-pyrido[3,4-b][1,4]oxazin-1-yl]pyridin-2-yl}-3-[4-(2-hydroxyethyl)piperazin-1-yl]propanamide] | < 1 nM | –
16 | O=C(CCN1CCN(CCC(=O)Nc2cc(N3CCOc4cnc(-c5cc(Cl)ccc5F)cc43)ccn2)CC1)NCCO [Example 35, 3-{4-[2-({4-[7-(5-chloro-2-fluorophenyl)-1H,2H,3H-pyrido[3,4-b][1,4]oxazin-1-yl]pyridin-2-yl}carbamoyl)ethyl]piperazin-1-yl}-N-(2-hydroxyethyl)propanamide] | < 1 nM | –
17 | CN(CCNS(C)(=O)=O)CCC(=O)Nc1cc(N2CCOc3cnc(-c4cc(Cl)ccc4F)cc32)ccn1 [Example 29, N-{4-[7-(5-chloro-2-fluorophenyl)-1H,2H,3H-pyrido[3,4-b][1,4]oxazin-1-yl]pyridin-2-yl}-3-[(2-methanesulfonamidoethyl)(methyl)amino]propanamide] | < 1 nM | –
18 | COC(=O)CC1CN(CCC(=O)Nc2cc(N3CCOc4cnc(-c5cc(Cl)ccc5F)cc43)ccn2)CCN1 (stereo not shown) [Example 48, Methyl 2-{4-[2-({4-[7-(5-chloro-2-fluorophenyl)-1H,2H,3H-pyrido[3,4-b][1,4]oxazin-1-yl]pyridin-2-yl}carbamoyl)ethyl]piperazin-2-yl}acetate] | < 1 nM | –
19 | CN1CCN(CCC(=O)Nc2cc(N3CCOc4c3cc(-c3cc(Cl)ccc3F)nc4N)ccn2)CC1 [Example 51, N-{4-[5-amino-7-(5-chloro-2-fluorophenyl)-1H,2H,3H-pyrido[3,4-b][1,4]oxazin-1-yl]pyridin-2-yl}-3-(4-methylpiperazin-1-yl)propanamide] | < 1 nM | –
20 | Nc1cc(N2CCOc3cnc(-c4cc(C5CC5)ccc4F)cc32)ccn1 [Example 12, 4-[7-(5-cyclopropyl-2-fluorophenyl)-1H,2H,3H-pyrido[3,4-b][1,4]oxazin-1-yl]pyridin-2-amine] | 1 to 5 nM | –
21 | CN(CCC(=O)Nc1cc(N2CCOc3cnc(-c4cc(Cl)ccc4F)cc32)ccn1)CCS(C)(=O)=O [Example 27, N-{4-[7-(5-chloro-2-fluorophenyl)-1H,2H,3H-pyrido[3,4-b][1,4]oxazin-1-yl]pyridin-2-yl}-3-[(2-methanesulfonylethyl)(methyl)amino]propanamide] | 1 to 5 nM | –

More lines, main results first:

Row | IC50 [1] | Structure (SMILES) | other results
22 | < 1 nM | COC(=O)C1CN(C)CCN1CCC(=O)Nc1cc(N2CCOc3cnc(-c4cc(Cl)ccc4F)cc32)ccn1 (stereo not shown) [Example 49, Methyl 1-[2-({4-[7-(5-chloro-2-fluorophenyl)-1H,2H,3H-pyrido[3,4-b][1,4]oxazin-1-yl]pyridin-2-yl}carbamoyl)ethyl]-4-methylpiperazine-2-carboxylate] | –
23 | < 1 nM | CS(=O)(=O)CCNCCC(=O)Nc1cc(N2CCOc3cnc(-c4cc(Cl)ccc4F)cc32)ccn1 [Example 26, N-{4-[7-(5-chloro-2-fluorophenyl)-1H,2H,3H-pyrido[3,4-b][1,4]oxazin-1-yl]pyridin-2-yl}-3-[(2-methanesulfonylethyl)amino] propanamide] | –
24 | < 1 nM | CN1CCN(CCC(=O)Nc2cc(N3CCOc4cnc(-c5cc(Cl)ccc5F)cc43)ccn2)CC1 [Example 14, N-{4-[7-(5-chloro-2-fluorophenyl)-1H,2H,3H-pyrido[3,4-b][1,4]oxazin-1-yl]pyridin-2-yl}-3-(4-methylpiperazin-1-yl)propanamide] | –
25 | < 1 nM | CN1CCC(CCC(=O)Nc2cc(N3CCOc4cnc(-c5cc(Cl)ncc5F)cc43)ccn2)CC1 [Example 41, N-{4-[7-(2-chloro-5-fluoropyridin-4-yl)-1H,2H,3H-pyrido[3,4-b][1,4]oxazin-1-yl]pyridin-2-yl}-3-(1-methylpiperidin-4-yl)propanamide] | –
26 | 1 to 5 nM | CC(C)c1ccc(F)c(-c2cc3c(cn2)OCCN3c2ccnc(N)c2)c1 [Example 13, 4-{7-[2-fluoro-5-(propan-2-yl)phenyl]-1H,2H,3H-pyrido[3,4-b][1,4]oxazin-1-yl}pyridin-2-amine] | –
27 | < 1 nM | COC(=O)CC1CN(C)CCN1CCC(=O)Nc1cc(N2CCOc3cnc(-c4cc(Cl)ccc4F)cc32)ccn1 (stereo not shown) [Example 50, Methyl 2-{1-[2-({4-[7-(5-chloro-2-fluorophenyl)-1H,2H,3H-pyrido[3,4-b][1,4]oxazin-1-yl]pyridin-2-yl}carbamoyl)ethyl]-4-methylpiperazin-2-yl}acetate] | –
28 | 1 to 5 nM | Nc1cc(N2CCOc3cnc(-c4cc(Cl)ccc4F)cc32)ccn1 [Example 3, 4-[7-(5-chloro-2-fluorophenyl)-1H,2H,3H-pyrido[3,4-b][1,4]oxazin-1-yl]pyridin-2-amine] | –
29 | < 1 nM | CN1CCN(CCC(=O)Nc2cc(N3CCOc4cnc(-c5cc(C6CC6)ccc5F)cc43)ccn2)CC1 [Example 33, N-{4-[7-(5-cyclopropyl-2-fluorophenyl)-1H,2H,3H-pyrido[3,4-b][1,4]oxazin-1-yl]pyridin-2-yl}-3-(4-methylpiperazin-1-yl)propanamide] | –
30 | 5 to 10 nM | Nc1cc(N2CCOc3cnc(-c4cccc(Cl)c4)cc32)ccn1 [Example 5, 4-[7-(3-chlorophenyl)-1H,2H,3H-pyrido[3,4-b][1,4]oxazin-1-yl]pyridin-2-amine] | –
